According to US8765972B2 (priority 2009, dated 2014):
Where two headings read alike, the source gives them in different places.

How the values were obtained:
[1] = system: PAR formation in HeLa cells; assay: cells; settings: Homo sapiens, read-out: PAR assay (IC50)
Protocol: Cellular PAR levels were measured by immunocytochemistry, and quantified using an ArrayScan vTi instrument (Cellomics Thermo Scientific). […] Test compounds were then added at the required concentration for 30'. […] After 3 washes in PBS, wells incubated in PBS (w/v) 5% FBS 0.05% Tween20 containing 2 μg/mL Cy2-conjugated Goat anti mouse secondary antibody (Amersham Pharmacia Biotech cat. […] At least 10 fields, corresponding to at least 900 cells, were read for each well. […] X is the logarithm of concentration. IC50 is the response; IC50 starts at Bottom and goes to Top with a sigmoid shape.

PARP-3 = PARP-3 (Homo sapiens (Human), UniProt Q9Y6F1); settings: read-out: PARP-3 (DC50); probe compound P1
Protocol: (§1) Affinity evaluation of the tested compounds and their selectivity with respect to the different PARP isoforms of interest was assessed in a displacement assay.
(§2) The polarization signal can be measured, e.g., by a plate reader such as the Saphire2 (Tecan). The displacement ability of the test compound is in correlation with the compound affinity for the NAD pocket of the enzyme.
(§3) In all of the experiments, the polarization signal was measured using a Saphire2 plate reader (Tecan). Data analysis was performed using Dynafit software. In particular, titration data were fitted to the following equilibria: Enzyme+probe<==>Complex Enzyme-probe, while displacement data were fitted to the following equilibria: Enzyme+probe<==>Complex Enzyme-probe, Enzyme+Compound<==>Complex Enzyme-Compound, whereby binding of probe and compound on the enzyme are mutually exclusive (pure competitive mechanism). Displacement data were also fitted using Excell spreadsheet (Microsoft Inc. Seattle, USA) to a four parameter logistic model (4PL), or Hill-Slope model to calculate DC50s where the DC50 value represents the compound concentration at which the polarization signal is diminished by 50% compared to untreated controls.
(§4) In agreement, affinity binding constants (KD) were determined by fitting with a pure competitive mechanism. KD values, are the average of three independent experiments.

PARP-2 = PARP-2 (Homo sapiens (Human), UniProt Q9UGN5); settings: read-out: PARP-2 (DC50); probe compound P1
Protocol: as §1, §2, §3, §4

PARP-1 [2] = molecular target: T1, PARP-1 (Homo sapiens (Human), UniProt P09874); settings: for DC50: read-out: PARP-1 (DC50); for Kd: read-out: PARP-1 (Kd)
T1 sequence (P09874 whole entry): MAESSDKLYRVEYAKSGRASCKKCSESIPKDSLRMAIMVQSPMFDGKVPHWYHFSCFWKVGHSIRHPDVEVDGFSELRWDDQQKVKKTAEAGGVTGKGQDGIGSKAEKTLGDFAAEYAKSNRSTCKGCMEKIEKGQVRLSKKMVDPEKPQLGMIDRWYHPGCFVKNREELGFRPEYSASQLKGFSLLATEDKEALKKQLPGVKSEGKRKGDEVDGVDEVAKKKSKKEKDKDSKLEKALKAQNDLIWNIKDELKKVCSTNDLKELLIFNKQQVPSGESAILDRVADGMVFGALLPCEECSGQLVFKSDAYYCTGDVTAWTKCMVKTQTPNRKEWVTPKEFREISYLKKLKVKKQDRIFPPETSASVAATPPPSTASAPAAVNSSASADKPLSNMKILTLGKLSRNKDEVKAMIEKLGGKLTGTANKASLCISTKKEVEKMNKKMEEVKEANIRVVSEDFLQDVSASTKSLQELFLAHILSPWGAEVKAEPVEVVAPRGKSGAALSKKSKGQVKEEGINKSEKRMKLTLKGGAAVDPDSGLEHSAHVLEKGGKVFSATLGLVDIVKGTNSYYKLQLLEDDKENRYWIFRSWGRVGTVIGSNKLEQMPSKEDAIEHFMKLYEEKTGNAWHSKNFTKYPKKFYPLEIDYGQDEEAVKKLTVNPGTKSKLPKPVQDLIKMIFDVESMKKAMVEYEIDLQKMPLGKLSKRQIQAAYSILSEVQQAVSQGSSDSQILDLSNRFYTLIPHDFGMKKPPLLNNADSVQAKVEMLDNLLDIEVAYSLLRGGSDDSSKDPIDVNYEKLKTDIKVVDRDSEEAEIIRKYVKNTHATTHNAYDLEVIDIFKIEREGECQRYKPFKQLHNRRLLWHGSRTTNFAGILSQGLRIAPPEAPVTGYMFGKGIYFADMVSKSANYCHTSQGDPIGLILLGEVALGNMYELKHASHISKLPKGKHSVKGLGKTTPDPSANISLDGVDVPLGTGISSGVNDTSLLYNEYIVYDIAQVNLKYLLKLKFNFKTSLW
Protocol: as §1, §2, §3, §4

[3] = system: ovarian cancer patients with confirmed BRCA-1 mutations; settings: phase I, monotherapy, preliminary data; cited from earlier work
[4] = male, Balb, Nu/Nu, mouse, in vivo, 10 mg/kg
Protocol: (§5) The compounds were formulated in 10% tween 80/dextrose for intravenous bolus administration while oral administrations were performed using the compounds formulated in 0.5% methylcellulose. […] Plasma samples were prepared by plasma proteins precipitation adding 200 μL of methanol to 10 μL of plasma in a 96 well plate. […] The supernatant was considered as final extract and injected onto the LC-MS-MS system (HPLC system: Hewlett Packard 1100 series using Atlantis HILIC Silica 50*2.1 mm 5.0 μm analytical column; MS instrument: Perkin Elmer SCIEX API 2000 and ionization performed with Turbo Ion Spray in positive ion mode). Lower limit of quantification is 5.0 ng/mL, upper limit of quantification is 10000 ng/mL. Analysis was performed using the Watson package (version 6.4.0.04) and Excel spreadsheet (Microsoft Inc. Seattle, USA). Non-compartmental method (linear trapezoidal rule and linear regression analysis of natural log-transformed plasma concentrations vs. time data) was used. After intravenous dosing, Co was set equal to Co 083 Absolute bioavailability (F) was calculated from the ratio of average oral to IV (intravenous) dose-normalized plasma AUC (area under curve) values.

[5] = system: Capan-1 human pancreatic cancer tumors; assay: In vivo efficacy, Capan-1 BRCA-2 mutated mouse model, single agent; design: species or system Balb, athymic Nu/Nu male mice; settings: oral
Description: (§6) Balb, athymic Nu/Nu male mice, from Harlan (Italy), were maintained in agreement with the European Communities Council Directive no. 86/609/EEC concerning the protection of animals used for experimental or other scientific purposes, in cages with paper filter cover, food and bedding sterilized and acidified water. Fragments of Capan-1 human pancreatic cancer tumors were implanted subcutaneously. […] Each group included seven animals. The treatment started one day after randomization. Compound of formula (I) was administered by oral route as a methocel suspension at the indicated doses and times. Tumor dimension was measured regularly by calipers during the experiments and tumor mass was calculated as described in Simeoni M. et al., Cancer Res 64, 1094-1101 (2004).

[6] = male, Balb, athymic Nu/Nu, mouse, in vivo, po
Description: as §6

in vivo = settings: male, Balb, Nu/Nu, mouse, 10 mg/kg; for Vd / clearance: iv; for AUC(0-t) / half-life: po
Protocol: as §5

PARP-1 [7] = molecular target: T1, PARP-1; assay: biochemical; settings: PARP-1 (Kd)
Protocol: as §1, §2, §3, §4

PARP-2, sequence (Q9UGN5 whole entry): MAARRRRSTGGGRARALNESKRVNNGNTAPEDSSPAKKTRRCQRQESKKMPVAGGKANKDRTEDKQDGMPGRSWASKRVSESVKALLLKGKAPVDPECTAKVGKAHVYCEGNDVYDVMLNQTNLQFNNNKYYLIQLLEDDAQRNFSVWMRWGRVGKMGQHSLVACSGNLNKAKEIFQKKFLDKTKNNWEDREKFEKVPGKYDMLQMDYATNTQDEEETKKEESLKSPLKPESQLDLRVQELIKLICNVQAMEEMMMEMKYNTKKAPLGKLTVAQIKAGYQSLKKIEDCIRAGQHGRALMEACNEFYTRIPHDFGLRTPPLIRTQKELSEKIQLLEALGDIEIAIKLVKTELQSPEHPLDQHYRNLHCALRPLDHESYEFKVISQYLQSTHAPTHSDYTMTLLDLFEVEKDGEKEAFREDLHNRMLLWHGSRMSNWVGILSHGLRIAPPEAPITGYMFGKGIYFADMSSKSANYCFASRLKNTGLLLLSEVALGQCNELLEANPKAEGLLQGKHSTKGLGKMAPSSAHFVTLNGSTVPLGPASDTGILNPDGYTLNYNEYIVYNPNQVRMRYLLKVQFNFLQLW
PARP-3, sequence (Q9Y6F1 whole entry): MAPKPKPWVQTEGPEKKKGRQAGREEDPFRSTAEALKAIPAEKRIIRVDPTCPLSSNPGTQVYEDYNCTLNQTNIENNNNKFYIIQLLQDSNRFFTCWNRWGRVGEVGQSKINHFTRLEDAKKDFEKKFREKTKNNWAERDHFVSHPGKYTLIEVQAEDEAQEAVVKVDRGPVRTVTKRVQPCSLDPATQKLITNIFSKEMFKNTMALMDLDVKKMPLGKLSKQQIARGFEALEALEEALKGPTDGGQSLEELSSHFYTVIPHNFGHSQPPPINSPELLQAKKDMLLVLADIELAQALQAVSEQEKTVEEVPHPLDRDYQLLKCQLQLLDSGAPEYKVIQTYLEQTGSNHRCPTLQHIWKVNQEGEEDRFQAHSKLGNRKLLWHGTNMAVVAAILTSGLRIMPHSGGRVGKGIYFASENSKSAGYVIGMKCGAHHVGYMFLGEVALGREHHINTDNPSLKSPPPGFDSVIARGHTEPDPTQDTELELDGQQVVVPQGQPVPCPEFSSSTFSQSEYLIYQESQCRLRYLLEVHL

IC50 [1] [nM] | DC50 (PARP-3) [nM] | DC50 (PARP-2) [nM] | DC50 (PARP-1 [2]; probe compound P1) [nM] | Kd (PARP-1 [2]; probe compound P3) [nM] | Structure (SMILES) | further results
4900 | > 10000 | > 10000 | < 250 | 40 | CC1c2cccc(C(N)=O)c2C(=O)N1c1ccc(N2CCOCC2)cc1 (stereo not drawn) [Compound 35, 1-Methyl-2-[4-(morpholin-4-yl)phenyl]-3-oxo-2,3-dihydro-1H-isoindole-4-carboxamide] | –
5300 | > 10000 | > 10000 | 1110 | – | CC1c2cccc(C(N)=O)c2C(=O)N1c1ccc(CN2CCCCC2)cc1 (stereo not drawn) [Compound 38, 1-Methyl-3-oxo-2-[4-(piperidin-1-ylmethyl)phenyl]-2,3-dihydro-1H-isoindole-4-carboxamide] | –
9000 | > 10000 | > 10000 | < 250 | 80 | CC1c2cccc(C(N)=O)c2C(=O)N1c1ccc(N2CCCCC2)cc1 (stereo not drawn) [Compound 36, 1-Methyl-3-oxo-2-[4-(piperidin-1-yl)phenyl]-2,3-dihydro-1H-isoindole-4-carboxamide] | –
2700 | > 10000 | 1820 | < 250 | – | CC1c2cccc(C(N)=O)c2C(=O)N1C1CCN(C2CCC2)CC1 (stereo not drawn) [Compound 18, 2-(1-Cyclobutylpiperidin-4-yl)-1-methyl-3-oxo-2,3-dihydro-1H-isoindole-4-carboxamide] | C-max (oral) [4]: 3.9 µM; Kd (PARP-1 [7]; probe compound P3): < 10 nM; Vd (in vivo): 3.84 L/kg; clearance (in vivo): 47 mL/min/kg; AUC(0-t) (in vivo): 7.28 µM·h; half-life (in vivo): 1.8 h
– | > 10000 | > 10000 | < 250 | 40 | CC1c2cccc(C(N)=O)c2C(=O)N1C1CCN(CC2CC=CCC2)CC1 (stereo not drawn) [Compound 22, 2-[1-(Cyclohex-3-en-1-ylmethyl)piperidin-4-yl]-1-methyl-3-oxo-2,3-dihydro-1H-isoindole-4-carboxamide] | –
– | > 10000 | > 10000 | < 250 | 40 | CC1c2cccc(C(N)=O)c2C(=O)N1C1CCN(Cc2ccco2)CC1 (stereo not drawn) [Compound 15, 2-[1-(Furan-2-ylmethyl)piperidin-4-yl]-1-methyl-3-oxo-2,3-dihydro-1H-isoindole-4-carboxamide] | –
640 | > 10000 | > 10000 | 410 | 60 | CC1c2cc(F)cc(C(N)=O)c2C(=O)N1C1CCN(C2CCCCC2)CC1 (stereo not drawn) [Compound 127, 2-(1-Cyclohexylpiperidin-4-yl)-6-fluoro-1-methyl-3-oxo-2,3-dihydro-1H-isoindole-4-carboxamide] | –
2500 | 3040 | > 10000 | < 250 | 20 | CC1c2cccc(C(N)=O)c2C(=O)N1C1CCN(Cc2ccc[nH]2)CC1 (stereo not drawn) [Compound 19, 1-Methyl-3-oxo-2-[1-(1H-pyrrol-2-ylmethyl)piperidin-4-yl]-2,3-dihydro-1H-isoindole-4-carboxamide] | C-max (oral) [4]: 2.85 µM; Vd (in vivo): 3.9 L/kg; clearance (in vivo): 88 mL/min/kg; AUC(0-t) (in vivo): 4.28 µM·h; half-life (in vivo): 0.8 h
270 | > 10000 | > 10000 | < 250 | – | CC1c2cc(F)cc(C(N)=O)c2C(=O)N1C1CCN(C2CCC(F)(F)CC2)CC1 (stereo not drawn) [Compound 126, 2-[1-(4,4-Difluorocyclohexyl)piperidin-4-yl]-6-fluoro-1-methyl-3-oxo-2,3-dihydro-1H-isoindole-4-carboxamide] | –
– | 2830 | 6880 | < 250 | 70 | CC1c2cccc(C(N)=O)c2C(=O)N1C1CCN(Cc2ncc[nH]2)CC1 (stereo not drawn) [Compound 26, 2-[1-(1H-Imidazol-2-ylmethyl)piperidin-4-yl]-1-methyl-3-oxo-2,3-dihydro-1H-isoindole-4-carboxamide] | –
3000 | > 10000 | > 10000 | 350 | 170 | CC1c2cccc(C(N)=O)c2C(=O)N1C1CCN(Cc2ccccn2)CC1 (stereo not drawn) [Compound 9, 1-Methyl-3-oxo-2-[1-(pyridin-2-ylmethyl)piperidin-4-yl]-2,3-dihydro-1H-isoindole-4-carboxamide] | –
4000 | > 10000 | > 10000 | 5660 | 870 | CC1(C)c2cc(F)cc(C(N)=O)c2C(=O)N1C1CCN(C2CCCCC2)CC1 [Compound 128, 2-(1-Cyclohexylpiperidin-4-yl)-6-fluoro-1,1-dimethyl-3-oxo-2,3-dihydro-1H-isoindole-4-carboxamide] | –
– | 3860 | > 10000 | < 250 | – | CC1c2cccc(C(N)=O)c2C(=O)N1C1CCN(Cc2cccs2)CC1 (stereo not drawn) [Compound 20, 1-Methyl-3-oxo-2-[1-(thiophen-2-ylmethyl)piperidin-4-yl]-2,3-dihydro-1H-isoindole-4-carboxamide] | Kd (PARP-1 [7]; probe compound P3): < 10 nM

The remaining lines, values behind:

Structure (SMILES) | IC50 [1] [nM] | DC50 (PARP-3) [nM] | DC50 (PARP-2) [nM] | DC50 (PARP-1 [2]; probe compound P1) [nM] | Kd (PARP-1 [2]; probe compound P3) [nM] | further results
O=C(c1cc(Cc2n[nH]c(=O)c3ccccc23)ccc1F)N1CCN(C(=O)C2CC2)CC1 [AZD2281] | – | – | – | – | – | partial responses [3]: 4 out of 10
CC1c2cccc(C(N)=O)c2C(=O)N1C1CCN(CC2CCCCC2)CC1 (stereo not drawn) [Compound 21, 2-[1-(Cyclohexylmethyl)piperidin-4-yl]-1-methyl-3-oxo-2,3-dihydro-1H-isoindole-4-carboxamide] | 1200 | > 10000 | > 10000 | – | – | C-max (oral) [4]: 1.2 µM; Max TGI (%) ([5]; 100 mg/kg, schedule 1-20 daily): 23%; Toxicity (body weight reduction, mice affected out of 7 treated) ([6]; 100 mg/kg): 0/7; Vd (in vivo): 4.9 L/kg; clearance (in vivo): 23 mL/min/kg; AUC(0-t) (in vivo): 7.39 µM·h; half-life (in vivo): 6.6 h
CC1c2cccc(C(N)=O)c2C(=O)N1C1CCN(C2CCCC2)CC1 (stereo not drawn) [Compound 13, 2-(1-Cyclopentylpiperidin-4-yl)-1-methyl-3-oxo-2,3-dihydro-1H-isoindole-4-carboxamide] | 500 | > 10000 | 1460 | < 250 | 50 | C-max (oral) [4]: 3.64 µM; Max TGI (%) ([5]; 100 mg/kg, schedule 1-20 daily): 18%; Toxicity (body weight reduction, mice affected out of 7 treated) ([6]; 100 mg/kg): 0/7; Vd (in vivo): 4.7 L/kg; clearance (in vivo): 26.7 mL/min/kg; AUC(0-t) (in vivo): 18.3 µM·h; half-life (in vivo): 2.9 h
C[C@@H]1c2cccc(C(N)=O)c2C(=O)N1C1CCN(C2CCCCC2)CC1 [Compound 5, (1R)-2-(1-Cyclohexylpiperidin-4-yl)-1-methyl-3-oxo-2,3-dihydro-1H-isoindole-4-carboxamide] | 6300 | > 10000 | > 10000 | – | – | DC50 (PARP-1 [2]): 2110 nM; Kd (PARP-1 [2]): 780 nM
CC1c2cccc(C(N)=O)c2C(=O)N1C1CCN(C2CCC(F)(F)CC2)CC1 (stereo not drawn) [Compound 6, 2-[1-(4,4-Difluorocyclohexyl)piperidin-4-yl]-1-methyl-3-oxo-2,3-dihydro-1H-isoindole-4-carboxamide] | 1300 | > 10000 | > 10000 | < 250 | 30 | –
CC1c2cccc(C(N)=O)c2C(=O)N1C1CCN(Cc2ccc3[nH]ccc3c2)CC1 (stereo not drawn) [Compound 7, 2-[1-(1H-indol-5-ylmethyl)piperidin-4-yl]-1-methyl-3-oxo-2,3-dihydro-1H-isoindole-4-carboxamide] | 7000 | 520 | > 10000 | < 250 | 30 | –
CC1c2cccc(C(N)=O)c2C(=O)N1C1CCN(Cc2cn(C(C)C)c3ccccc23)CC1 (stereo not drawn) [Compound 8, 1-Methyl-3-oxo-2-(1-{[1-(propan-2-yl)-1H-indol-3-yl]methyl}piperidin-4-yl)-2,3-dihydro-1H-isoindole-4-carboxamide] | – | 3100 | > 10000 | 440 | 250 | –
C[C@H]1c2cccc(C(N)=O)c2C(=O)N1C1CCN(C2CCCCC2)CC1 [Compound 4, (1S)-2-(1-Cyclohexylpiperidin-4-yl)-1-methyl-3-oxo-2,3-dihydro-1H-isoindole-4-carboxamide] | 150 | > 10000 | > 10000 | – | – | C-max (oral) [4]: 1.37 µM; Max TGI (%) ([5]; 75 mg/kg, schedule 1-10 daily): 52%; DC50 (PARP-1 [2]): < 250 nM; Kd (PARP-1 [7]): < 10 nM; Toxicity (body weight reduction, mice affected out of 7 treated) ([6]; 75 mg/kg): 0/7; Vd (in vivo): 6.8 L/kg; clearance (in vivo): 53.4 mL/min/kg; AUC(0-t) (in vivo): 4.93 µM·h; half-life (in vivo): 2.62 h
CC1c2cccc(C(N)=O)c2C(=O)N1C1CCN(C2CCCCC2)CC1 (racemic) [Compound 3, 2-(1-Cyclohexylpiperidin-4-yl)-1-methyl-3-oxo-2,3-dihydro-1H-isoindole-4-carboxamide] | 280 | > 10000 | > 10000 | – | – | C-max (oral) [4]: 2.53 µM; Max TGI (%) ([5]; 100 mg/kg, schedule 1-10 daily): 51%; DC50 (PARP-1 [2]): < 250 nM; Kd (PARP-1 [7]): < 10 nM; Toxicity (body weight reduction, mice affected out of 7 treated) ([6]; 100 mg/kg): 0/7; Vd (in vivo): 3.61 L/kg; clearance (in vivo): 32.6 mL/min/kg; AUC(0-t) (in vivo): 13.5 µM·h; half-life (in vivo): 3.04 h
